Assay: Threshold concentration versus duration of effect analysis of Example 35 data
Assay type: in vivo, human
Experimental: In Example 38, the individual concentration-time profiles for soft gelatin capsules of Example 35 were analyzed to identify the mean duration of effect in that subject population, for a range of threshold concentrations (e.g., minimum effective concentrations). The results are depicted in FIG. 4.

[1] = 5 mg dose, by dose-proportional scaling
[2] = dose of 10 mg dronabinol, soft gelatin capsules of Example 35 data

CCCCCc1cc(O)c2c(c1)OC(C)(C)[C@@H]1CCC(C)=C[C@@H]21 [dronabinol, Delta-9-Tetrahydrocannabinol]
threshold concentration for a 4 hour duration of effect [1]: approximately 0.28 ng/mL
threshold concentration for a 6 hour duration of effect [1]: ~0.12 ng/mL
threshold concentration required for a 4 hour duration of effect [2]: approximately 0.56 ng/mL
threshold concentration required for a 6 hour duration of action [2]: approximately 0.24 ng/mL

Reference: patent publication US20090181080A1, “Oral cannabinnoid liquid formulations and methods of treatment” (Insys Therapeutics Inc., priority 2007, published 2009)
